Experimental findings from patent publication US8232298B2, “Inhibitors of the interaction between MDM2 and P53” (Janssen Pharmaceutica N.V., priority 2006, dated 2012) are described below.

The test system of one data set is p53 in A2780 cells. Put plainly: p53 ELISA: capacity to preserve p53 in A2780 cells. The conditions noted are these: treated with compound for 16 hours, in M. The data set is classed as cell-based. On the procedure:
The capacity of the compounds to preserve p53 in A2780 cells was measured with the p53 enzyme linked immunosorbent assay. The p53 assay is a “sandwich” enzyme immunoassay employing two polyclonal antibodies. A polyclonal antibody, specific for the p53 protein, has been immobilized onto the surface of the plastic wells. Any p53 present in the sample to be assayed will bind to the capture antibody. The biotinylated detector polyclonal antibody also recognizes p53 protein, and will bind to any p53, which has been retained by the capture antibody. The detector antibody, in turn, is bond by horseradish peroxidase-conjugated streptavidin. The horseradish peroxidase catalyses the conversion of the chromogenic substrate o-phenylene diamine, the intensity of which is proportional to the amount of p53 protein bond to the plate. The colored reaction product is quantified using a spectrophotometer. Quantitation is achieved by the construction of a standard curve using known concentrations of purified recombinant HIS tagged p53 protein (see example C.1.).
A2780 cells (ATCC) were cultivated in RPMI 1640 supplemented with 10% fetal calf serum (FCS), 2 mM L-glutamine and gentamycin at 37° C. in a humidified incubator with 5% CO2.
A2780 cells were seeded at 20.000 cells per well in a 96 well plate, cultured for 24 hours and treated with compound for 16 hours at 37° C. in a humidified incubator. After incubation, the cells were washed once with phosphate-buffered saline and 30 μl, per well, low salt RIPA buffer (20 mM tris, pH7.0, 0.5 mM EDTA, 1% Nonidet P40, 0.5% DOC, 0.05% SDS, 1 mM PMSF, 1 μg/ml aprotinin and 0.5 μ/ml leupeptin) was added. Plates were placed on ice for 30 minutes to complete the lysis. p53 protein was detected in de lysates by using the sandwich ELISA, described below.
High binding polystyrene EIA/RIA 96 well plates (Costar 9018) were coated with the capture antibody pAb1801 (Abeam ab28-100) at a concentration of 1 μg/ml in coating buffer (0.1 M NaHCO3 pH8.2), 50 μl per well. The antibody was allowed to adhere overnight at 4° C. Coated plates were washed once with phosphate-buffered saline (PBS)/0.05% Tween 20 and 300 μl of blocking buffer (PBS, 1% bovine serum albumins (BSA)) was added, for an incubation period of 2 hours at room temperature. Dilutions of purified recombinant HIS tagged p53 protein, ranging from 3-200 ng/ml, were made in blocking buffer and used as standards.
Plates were washed twice with PBS/0.05% Tween 20 and blocking buffer or standards were added at 80 μl/well. To the standards, 20 μl of lysis buffer was added. The samples were added to the other wells at 20 μl lysate/well. After an overnight incubation at 4° C., plates were washed twice with PBS/0.05% Tween 20. Aliquots of 100 μl secondary polyclonal antibody p53(FL-393) (Tebubio, sc-6243) at a concentration of 1 μg/ml in blocking buffer were added to each well and allowed to adhere for 2 hours at room temperature. Plates were washed three times with PBS /0.05% Tween 20. Detection antibody anti-rabbit HRP (sc-2004, Tebubio) at 0.04 μg/ml in PBS/1% BSA was added and incubated for 1 hour at room temperature. Plates were washed three times with PBS/0.05% Tween 20 and 100 μl of substrate buffer was added (substrate buffer was prepared shortly before use by adding 1 tablet of 10 mg o-phenylene diamine (OPD) from Sigma and 125 μl 3% H2O2 to 25 ml OPD buffer: 35 mM citric acid, 66 mM Na2HPO4, pH5.6). After 5 to 10 minutes, colour reaction was stopped by adding 50 μl stop buffer (1 M H2SO4) per well. The absorbance at dual wavelengths of 490/655 nm was measured using a Biorad micro plate reader and the results were then analyzed.
For each experiment, controls (containing no drug) and a blank incubation (containing no cells or drugs) were run in parallel. The blank value was subtracted from all control and sample values. For each sample, the value of p53 (in absorbance units) was expressed as the percentage of the value for p53 present in the control. […]
In general terms: ELISA stands for enzyme-linked immunosorbent assay.

A further data set relates to U87MG cells. Put plainly: Proliferation assay (MTT) on U87MG tumour cells. The class given is cell-based. To be noted: Homo sapiens, U-87 MG. Here is the method:
Cellular activity of the compounds of formula (I) was determined on U87MG tumour cells using a colorimetric assay for cell toxicity or survival (see example C.2).
U87MG cells are human glioblastoma cells with wild type p53. In this cell line MDM2 tightly controls p53 expression.
All compounds tested were dissolved in DMSO and further dilutions were made in culture medium. Final DMSO concentrations never exceeded 0.1% (v/v) in cell proliferation assays. Controls contained U87MG cells and DMSO without compound and blanks contained DMSO but no cells.
U87MG cells were seeded in 96-well cell culture plates at 3000 cells/well/100 μl. 24 hours later, medium was changed and compound and/or solvent were added to a final volume of 200 μl. Following 4 days of incubation, medium was replaced by 200 μl fresh medium and cell growth was assessed using a MTT-based assay. Therefore, 25 μl of the MTT solution (0.5% MTT research grade from Serva in phosphate-buffered saline ) was added to each well and the cells were further incubated for 2 hours at 37° C. The medium was then carefully aspirated and the blue MTT-formazan product was dissolved by adding to each well 25 μl 0.1M glycin and 100 μl DMSO. The plates were shaken for another 10 min on a micro plate shaker before reading absorbance at 540 nm by a Biorad micro plate reader.
Within an experiment, the results for each experimental condition are the mean of 3 replicate wells. For initial screening purposes, compounds were tested at a single fixed concentration of 10^−5 M. For active compounds, the experiments were repeated to establish full concentration-response curves. For each experiment, controls (containing no drug) and a blank incubation (containing no cells or drugs) were run in parallel. The blank value was subtracted from all control and sample values. For each sample, the mean value for cell growth (in absorbance units) was expressed as a percentage of the mean value for cell growth of the control. When appropriate, IC50-values (concentration of the drug, needed to reduce cell growth to 50% of the control) were computed using probit analysis for graded data (Finney, D. J., Probit Analyses, 2nd Ed. Chapter 10, Graded Responses, Cambridge University Press, Cambridge 1962). Herein the effects of test compounds are expressed as pIC50 (the negative log value of the IC50-value) (see table F-2).
In some of the experiments the proliferation assay was adapted for and used in 384-well culture plates (see table F-2).

[1] abbreviates: 96 h, 96-well plates, 4 days of incubation, read-out: cell proliferation pIC50 96 well (converted).
The mark [2] stands for this setting: 384-well culture plates, read-out: cell proliferation pIC50 384 well (converted).

Read-outs that look alike come from different tables or passages of the source. Some results are limits rather than exact numbers.

Broadly, the melting point is the temperature, or range, at which the solid turns liquid. Turning to `c1cnc2[nH]cc(CCNc3ccc(Nc4ccncc4)cc3)c2c1` [Compound 2], the melting point was 182 °C. Further, the “A2780 p53-elisa LAD (lowest dose giving at least 140% of the value for p53 present in the control)” value with p53 in A2780 cells is 3.0E−06. In the data set on U87MG cells (setting [1]), the IC50 is 4.37 µM.
Turning to `c1cc(Nc2ccc(Nc3ccc4[nH]ccc4c3)cc2)ccn1` [Compound 4], the “A2780 p53-elisa LAD (lowest dose giving at least 140% of the value for p53 present in the control)” value in the data set on p53 in A2780 cells stood at 1.0E−06. For the same compound, the IC50 with U87MG cells (setting [2]) is 1.41 µM.
For `c1ccc2c(CCNc3ccc(Nc4ccncc4)cc3)coc2c1` [Compound 1], the melting point fell in the range of 152 to 154 °C. For the same compound, the “A2780 p53-elisa LAD (lowest dose giving at least 140% of the value for p53 present in the control)” value with p53 in A2780 cells is 1.0E−05. Also, the IC50 in the data set with U87MG cells (setting [1]) was 3.24 µM.
For `COc1ccc2c(CCNc3ccc(Nc4ccncc4)cc3)coc2c1` [Compound 5], in that order: 184 to 186 °C, 1.0E−05 and 4.47 µM.
Take `c1cc(Nc2ccc(NCCc3c[nH]c4sccc34)cc2)ccn1` [Compound 6]: the “A2780 p53-elisa LAD (lowest dose giving at least 140% of the value for p53 present in the control)” value with p53 in A2780 cells is 1.0E−05. In the data set on U87MG cells (setting [2]), the IC50 is more than 10 µM.
In turn, `c1cc(Nc2ccc(NCCc3cnc4n3CCCC4)cc2)ccn1` [Compound 3] had a melting point of 256 °C. Also, in the data set on p53 in A2780 cells, the “A2780 p53-elisa LAD (lowest dose giving at least 140% of the value for p53 present in the control)” value is on record as 3.0E−06. The IC50 in the data set with U87MG cells (setting [1]) is 7.08 µM.
